# Results taken from patent US7008905B2, “Method of combating undesired plant growth on cereals” (BASF Aktiengesellschaft, priority 2000, dated 2006).
# Tests used:
# Format in all cases: in vivo
# Alopecurus myosuroides = test: Pre-emergence test, weed control; settings: 3 weeks after treatment, rating 0-100 (100=death), Table 3
# Protocol: (§1) The pre-emergence tests involve spraying a liquid formulation of the compound onto the soil in which the seeds of the plant species mentioned above has recently been sown.
# (§2) The soil used in the tests is a prepared horticultural loam. The formulations used in the tests are prepared from solutions of the test compounds in acetone containing 0.4% by weight of an alkylphenol/ethylene oxide condensate available under the trade mark TRITON X-155.
# (§3) In these tests untreated sown soil is used as control. The herbicidal effects of the test compounds are assessed visually three weeks after spraying the soil and are recorded an a 0 to 100 scale. A rating 0 indicates growth as untreated control, a rating 100 indicates death. An increase of 10 unit an the linear scale approximates to a 10% increase in the level of effect. The results of the assessment are set out in Tables 1 to 4.
# Apera spica-venti = test: Pre-emergence test, weed control; settings: 3 weeks after treatment, rating 0-100 (100=death), Table 3
# Protocol: as §1, §2, §3
# Galium aparine = test: Pre-emergence test, weed control; settings: 3 weeks after treatment, rating 0-100 (100=death), Table 3
# Protocol: as §1, §2, §3
# Lamium purpureum = test: Pre-emergence test, weed control; settings: 3 weeks after treatment, rating 0-100 (100=death), Table 3
# Protocol: as §1, §2, §3
# Lolium perenne = test: Pre-emergence test, weed control; settings: 3 weeks after treatment, rating 0-100 (100=death), Table 3
# Protocol: as §1, §2, §3
# Matricaria inodora = test: Pre-emergence test, weed control; settings: 3 weeks after treatment, rating 0-100 (100=death), Table 3
# Protocol: as §1, §2, §3
# Poa annua = test: Pre-emergence test, weed control; settings: 3 weeks after treatment, rating 0-100 (100=death), Table 3
# Protocol: as §1, §2, §3
# Setaria viridis = test: Pre-emergence test, weed control; settings: 3 weeks after treatment, rating 0-100 (100=death), Table 3
# Protocol: as §1, §2, §3
# Stellaria media = test: Pre-emergence test, weed control; settings: 3 weeks after treatment, rating 0-100 (100=death), Table 3
# Protocol: as §1, §2, §3
# Veronica persica = test: Pre-emergence test, weed control; settings: 3 weeks after treatment, rating 0-100 (100=death), Table 3
# Protocol: as §1, §2, §3
# PAPRH = test: Pre-emergence test, weed control; settings: 3 weeks after treatment, rating 0-100 (100=death), Table 3
# Protocol: as §1, §2
# as §3, with “These acetone solutions are diluted with water and the resulting formulations applied at dosage levels corresponding to 15 g, 30 g, 60 g, 120 g or 240 g of active material per hectare in a volume equivalent to 900 liters per hectare. In” for “In”
# VIOAR = test: Pre-emergence test, weed control; settings: 3 weeks after treatment, rating 0-100 (100=death), Table 3
# Protocol: as §1, §2
# as §3, with “These acetone solutions are diluted with water and the resulting formulations applied at dosage levels corresponding to 15 g, 30 g, 60 g, 120 g or 240 g of active material per hectare in a volume equivalent to 900 liters per hectare. In” for “In”
# [1] = system: Triticum aestivum variety “Kanzler”; test: Pre-emergence test, selectivity; settings: 3 weeks after treatment, rating 0-100 (100=death), Table 4
# Protocol: as §1, §2
# as §3, with “These acetone solutions are diluted with water and the resulting formulations applied at dosage levels corresponding to 15 g, 30 g, 60 g, 120 g or 240 g of active material per hectare in a volume equivalent to 900 liters per hectare. In” for “In”
# [2] = system: Triticum aestivum variety “Monopol”; test: Pre-emergence test, selectivity; settings: 3 weeks after treatment, rating 0-100 (100=death), Table 4
# Protocol: as §1, §2
# as §3, with “These acetone solutions are diluted with water and the resulting formulations applied at dosage levels corresponding to 15 g, 30 g, 60 g, 120 g or 240 g of active material per hectare in a volume equivalent to 900 liters per hectare. In” for “In”
# wheat = test: Pre-emergence test, tolerance in wheat; settings: in vivo
# Protocol: as §1, §2
# as §3, with “These acetone solutions are diluted with water and the resulting formulations applied at dosage levels corresponding to 15 g, 30 g, 60 g, 120 g or 240 g of active material per hectare in a volume equivalent to 900 liters per hectare. In” for “In”
compound,measurement,setting,value
Cc1cc(Oc2ccnc(Cl)c2)nc(-c2ccc(C(F)(F)F)cc2)n1 [REF-6],ALOMY weed control rating,Alopecurus myosuroides; 0.030 kg/ha,30
same,ALOMY weed control rating,Alopecurus myosuroides; 0.060 kg/ha,60
same,ALOMY weed control rating,Alopecurus myosuroides; 0.120 kg/ha,97
same,ALOMY weed control rating,Alopecurus myosuroides; 0.240 kg/ha,99
same,APESV weed control rating,Apera spica-venti; 0.030 kg/ha,100
same,APESV weed control rating,Apera spica-venti; 0.060 kg/ha,100
same,APESV weed control rating,Apera spica-venti; 0.120 kg/ha,100
same,APESV weed control rating,Apera spica-venti; 0.240 kg/ha,100
same,GALAP weed control rating,Galium aparine; 0.120 kg/ha,65
same,GALAP weed control rating,Galium aparine; 0.240 kg/ha,97
same,LAMPU weed control rating,Lamium purpureum; 0.030 kg/ha,85
same,LAMPU weed control rating,Lamium purpureum; 0.060 kg/ha,100
same,LAMPU weed control rating,Lamium purpureum; 0.120 kg/ha,100
same,LAMPU weed control rating,Lamium purpureum; 0.240 kg/ha,100
same,LOLPE weed control rating,Lolium perenne; 0.030 kg/ha,95
same,LOLPE weed control rating,Lolium perenne; 0.060 kg/ha,100
same,LOLPE weed control rating,Lolium perenne; 0.120 kg/ha,100
same,LOLPE weed control rating,Lolium perenne; 0.240 kg/ha,100
same,MATIN weed control rating,Matricaria inodora; 0.030 kg/ha,99
same,MATIN weed control rating,Matricaria inodora; 0.060 kg/ha,100
same,MATIN weed control rating,Matricaria inodora; 0.120 kg/ha,100
same,MATIN weed control rating,Matricaria inodora; 0.240 kg/ha,100
same,POAAN weed control rating,Poa annua; 0.030 kg/ha,100
same,POAAN weed control rating,Poa annua; 0.060 kg/ha,100
same,POAAN weed control rating,Poa annua; 0.120 kg/ha,100
same,POAAN weed control rating,Poa annua; 0.240 kg/ha,100
same,SETVI weed control rating,Setaria viridis; 0.030 kg/ha,100
same,SETVI weed control rating,Setaria viridis; 0.060 kg/ha,100
same,SETVI weed control rating,Setaria viridis; 0.120 kg/ha,100
same,SETVI weed control rating,Setaria viridis; 0.240 kg/ha,100
same,STEME weed control rating,Stellaria media; 0.030 kg/ha,97
same,STEME weed control rating,Stellaria media; 0.060 kg/ha,100
same,STEME weed control rating,Stellaria media; 0.120 kg/ha,100
same,STEME weed control rating,Stellaria media; 0.240 kg/ha,100
same,VERPE weed control rating,Veronica persica; 0.030 kg/ha,96
same,VERPE weed control rating,Veronica persica; 0.060 kg/ha,100
same,VERPE weed control rating,Veronica persica; 0.120 kg/ha,100
same,VERPE weed control rating,Veronica persica; 0.240 kg/ha,100
same,PAPRH weed control rating,PAPRH; 0.030 kg/ha,100
same,PAPRH weed control rating,PAPRH; 0.060 kg/ha,100
same,PAPRH weed control rating,PAPRH; 0.120 kg/ha,100
same,PAPRH weed control rating,PAPRH; 0.240 kg/ha,100
same,VIOAR weed control rating,VIOAR; 0.030 kg/ha,99
same,VIOAR weed control rating,VIOAR; 0.060 kg/ha,99
same,VIOAR weed control rating,VIOAR; 0.120 kg/ha,99
same,VIOAR weed control rating,VIOAR; 0.240 kg/ha,99
same,TRZAWK rating (Selectivity),[1]; 0.060 kg/ha,10
same,TRZAWK rating (Selectivity),[1]; 0.120 kg/ha,12
same,TRZAWK rating (Selectivity),[1]; 0.240 kg/ha,25
same,TRZAWM rating (Selectivity),[2]; 0.030 kg/ha,1
same,TRZAWM rating (Selectivity),[2]; 0.060 kg/ha,8
same,TRZAWM rating (Selectivity),[2]; 0.120 kg/ha,15
same,TRZAWM rating (Selectivity),[2]; 0.240 kg/ha,25
same,maximum tolerated dose in wheat / dose at which sufficiently selective in wheat,wheat,120 g/ha
COc1cnc(-c2ccc(C(F)(F)F)cc2)nc1Oc1ccnc(Cl)c1 [REF-8],ALOMY weed control rating,Alopecurus myosuroides; 0.030 kg/ha,15
same,ALOMY weed control rating,Alopecurus myosuroides; 0.060 kg/ha,35
same,ALOMY weed control rating,Alopecurus myosuroides; 0.120 kg/ha,70
same,ALOMY weed control rating,Alopecurus myosuroides; 0.240 kg/ha,90
same,APESV weed control rating,Apera spica-venti; 0.030 kg/ha,100
same,APESV weed control rating,Apera spica-venti; 0.060 kg/ha,100
same,APESV weed control rating,Apera spica-venti; 0.120 kg/ha,100
same,APESV weed control rating,Apera spica-venti; 0.240 kg/ha,100
same,GALAP weed control rating,Galium aparine; 0.030 kg/ha,3
same,GALAP weed control rating,Galium aparine; 0.120 kg/ha,70
same,GALAP weed control rating,Galium aparine; 0.240 kg/ha,70
same,LAMPU weed control rating,Lamium purpureum; 0.030 kg/ha,98
same,LAMPU weed control rating,Lamium purpureum; 0.060 kg/ha,100
same,LAMPU weed control rating,Lamium purpureum; 0.120 kg/ha,100
same,LAMPU weed control rating,Lamium purpureum; 0.240 kg/ha,100
same,LOLPE weed control rating,Lolium perenne; 0.030 kg/ha,60
same,LOLPE weed control rating,Lolium perenne; 0.060 kg/ha,97
same,LOLPE weed control rating,Lolium perenne; 0.120 kg/ha,99
same,LOLPE weed control rating,Lolium perenne; 0.240 kg/ha,99
same,MATIN weed control rating,Matricaria inodora; 0.030 kg/ha,95
same,MATIN weed control rating,Matricaria inodora; 0.060 kg/ha,100
same,MATIN weed control rating,Matricaria inodora; 0.120 kg/ha,100
same,MATIN weed control rating,Matricaria inodora; 0.240 kg/ha,100
same,POAAN weed control rating,Poa annua; 0.030 kg/ha,100
same,POAAN weed control rating,Poa annua; 0.060 kg/ha,100
same,POAAN weed control rating,Poa annua; 0.120 kg/ha,100
same,POAAN weed control rating,Poa annua; 0.240 kg/ha,100
same,SETVI weed control rating,Setaria viridis; 0.030 kg/ha,60
same,SETVI weed control rating,Setaria viridis; 0.060 kg/ha,90
same,SETVI weed control rating,Setaria viridis; 0.120 kg/ha,90
same,SETVI weed control rating,Setaria viridis; 0.240 kg/ha,100
same,STEME weed control rating,Stellaria media; 0.030 kg/ha,35
same,STEME weed control rating,Stellaria media; 0.060 kg/ha,85
same,STEME weed control rating,Stellaria media; 0.120 kg/ha,100
same,STEME weed control rating,Stellaria media; 0.240 kg/ha,100
same,VERPE weed control rating,Veronica persica; 0.030 kg/ha,100
same,VERPE weed control rating,Veronica persica; 0.060 kg/ha,100
same,VERPE weed control rating,Veronica persica; 0.120 kg/ha,100
same,VERPE weed control rating,Veronica persica; 0.240 kg/ha,100
same,PAPRH weed control rating,PAPRH; 0.030 kg/ha,100
same,PAPRH weed control rating,PAPRH; 0.060 kg/ha,100
same,PAPRH weed control rating,PAPRH; 0.120 kg/ha,100
same,PAPRH weed control rating,PAPRH; 0.240 kg/ha,100
same,VIOAR weed control rating,VIOAR; 0.030 kg/ha,99
same,VIOAR weed control rating,VIOAR; 0.060 kg/ha,99
same,VIOAR weed control rating,VIOAR; 0.120 kg/ha,100
same,VIOAR weed control rating,VIOAR; 0.240 kg/ha,100
same,TRZAWK rating (Selectivity),[1]; 0.030 kg/ha,1
same,TRZAWK rating (Selectivity),[1]; 0.060 kg/ha,5
same,TRZAWK rating (Selectivity),[1]; 0.120 kg/ha,12
same,TRZAWK rating (Selectivity),[1]; 0.240 kg/ha,18
same,TRZAWM rating (Selectivity),[2]; 0.030 kg/ha,1
same,TRZAWM rating (Selectivity),[2]; 0.060 kg/ha,3
same,TRZAWM rating (Selectivity),[2]; 0.120 kg/ha,15
same,TRZAWM rating (Selectivity),[2]; 0.240 kg/ha,18
same,maximum tolerated dose in wheat / dose at which sufficiently selective in wheat,wheat,120 g/ha
